The text below walks through data of ChEMBL document CHEMBL3352697, “Molecular modeling studies of atorvastatin analogues as HMGR inhibitors using 3D-QSAR, molecular docking and molecular dynamics simulations” (Bioorg Med Chem Lett, 2014).

The target of this experiment is T1, 3-hydroxy-3-methylglutaryl-coenzyme A reductase (Homo sapiens, UniProt P04035).
T1 sequence (P04035 whole entry): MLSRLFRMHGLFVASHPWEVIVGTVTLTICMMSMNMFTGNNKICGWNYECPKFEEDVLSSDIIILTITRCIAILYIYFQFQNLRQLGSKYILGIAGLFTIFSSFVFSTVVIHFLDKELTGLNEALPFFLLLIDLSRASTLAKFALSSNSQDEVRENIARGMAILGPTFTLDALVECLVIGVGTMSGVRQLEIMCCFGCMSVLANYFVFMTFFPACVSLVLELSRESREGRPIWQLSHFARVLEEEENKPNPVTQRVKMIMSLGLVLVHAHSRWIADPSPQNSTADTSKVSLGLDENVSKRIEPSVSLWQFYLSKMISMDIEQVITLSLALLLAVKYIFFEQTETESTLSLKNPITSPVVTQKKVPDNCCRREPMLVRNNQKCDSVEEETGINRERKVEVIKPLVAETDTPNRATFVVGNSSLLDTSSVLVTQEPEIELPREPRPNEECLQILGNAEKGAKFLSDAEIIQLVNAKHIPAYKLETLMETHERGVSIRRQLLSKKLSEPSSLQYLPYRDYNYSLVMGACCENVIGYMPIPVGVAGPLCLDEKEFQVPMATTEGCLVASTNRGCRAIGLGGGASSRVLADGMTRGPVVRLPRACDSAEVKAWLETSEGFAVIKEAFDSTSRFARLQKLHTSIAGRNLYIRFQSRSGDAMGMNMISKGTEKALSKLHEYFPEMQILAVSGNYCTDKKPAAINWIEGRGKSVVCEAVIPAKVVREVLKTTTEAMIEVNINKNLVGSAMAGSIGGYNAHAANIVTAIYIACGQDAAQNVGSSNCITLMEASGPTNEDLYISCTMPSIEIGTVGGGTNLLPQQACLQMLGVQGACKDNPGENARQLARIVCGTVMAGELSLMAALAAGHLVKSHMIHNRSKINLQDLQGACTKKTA
As to the kind of experiment: Inhibition of HMG-CoA reductase (unknown origin).

For `CC(C)n1c(/C=C/[C@@H](O)C(F)(F)[C@@H](O)CC(=O)O)c(-c2ccc(F)cc2)c2ccccc21`, the IC50 (as a rule, the concentration at which inhibition is half-maximal) is 8.89 nM.
